Results reported in ChEMBL document CHEMBL5291721, “A preclinical secondary pharmacology resource illuminates target-adverse drug reaction associations of marketed drugs” (Nat Commun, 2023).

Legend:
[1] = biological target: T1, Type-2 angiotensin II receptor (Homo sapiens, UniProt P50052); type: functional
T1 sequence (P50052 whole entry): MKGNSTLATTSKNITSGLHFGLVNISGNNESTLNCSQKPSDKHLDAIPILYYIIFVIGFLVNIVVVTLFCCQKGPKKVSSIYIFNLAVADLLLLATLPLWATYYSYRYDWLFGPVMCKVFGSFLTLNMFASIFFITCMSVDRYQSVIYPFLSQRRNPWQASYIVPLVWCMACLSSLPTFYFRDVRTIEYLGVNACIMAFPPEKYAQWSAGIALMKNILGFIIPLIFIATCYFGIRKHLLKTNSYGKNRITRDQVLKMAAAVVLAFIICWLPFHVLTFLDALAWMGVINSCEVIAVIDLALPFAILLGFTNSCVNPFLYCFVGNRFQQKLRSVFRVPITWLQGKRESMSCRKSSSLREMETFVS

[2] = biological target: T2, 5-hydroxytryptamine receptor 1A (Homo sapiens, UniProt P08908)
T2 sequence (P08908 whole entry): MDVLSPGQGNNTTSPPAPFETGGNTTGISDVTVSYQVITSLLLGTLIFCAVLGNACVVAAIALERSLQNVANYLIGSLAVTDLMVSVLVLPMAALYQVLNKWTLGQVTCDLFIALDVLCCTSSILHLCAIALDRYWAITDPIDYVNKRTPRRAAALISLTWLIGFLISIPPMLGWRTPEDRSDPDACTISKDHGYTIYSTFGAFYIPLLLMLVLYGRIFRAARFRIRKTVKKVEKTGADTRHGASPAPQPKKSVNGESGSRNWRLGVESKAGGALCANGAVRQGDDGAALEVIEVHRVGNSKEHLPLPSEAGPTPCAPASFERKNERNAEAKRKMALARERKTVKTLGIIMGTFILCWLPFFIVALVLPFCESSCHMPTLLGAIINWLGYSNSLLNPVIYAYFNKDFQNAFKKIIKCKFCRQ

[3] = biological target: T3, Prostaglandin G/H synthase 1 (Rattus norvegicus, UniProt Q63921); type: functional
T3 sequence (Q63921 whole entry): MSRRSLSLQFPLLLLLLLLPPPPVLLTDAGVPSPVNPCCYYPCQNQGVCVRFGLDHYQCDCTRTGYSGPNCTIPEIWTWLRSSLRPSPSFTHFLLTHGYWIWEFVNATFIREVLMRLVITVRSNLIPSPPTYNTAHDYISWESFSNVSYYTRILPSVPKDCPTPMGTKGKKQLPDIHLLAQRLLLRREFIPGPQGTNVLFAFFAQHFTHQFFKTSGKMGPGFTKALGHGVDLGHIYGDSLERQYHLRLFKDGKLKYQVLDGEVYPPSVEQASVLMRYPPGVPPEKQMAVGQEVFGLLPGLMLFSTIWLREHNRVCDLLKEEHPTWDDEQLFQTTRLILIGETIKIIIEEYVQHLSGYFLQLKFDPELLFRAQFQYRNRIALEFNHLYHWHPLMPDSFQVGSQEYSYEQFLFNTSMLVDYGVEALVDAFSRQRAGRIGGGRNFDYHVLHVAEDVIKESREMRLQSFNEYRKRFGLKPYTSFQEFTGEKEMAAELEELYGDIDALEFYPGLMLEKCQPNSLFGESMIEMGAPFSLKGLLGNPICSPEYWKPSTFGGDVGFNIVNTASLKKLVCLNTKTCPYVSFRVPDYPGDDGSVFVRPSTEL

[4] = biological target: T4, Oxysterols receptor LXR-beta (Homo sapiens, UniProt P55055); type: functional
T4 sequence (P55055 whole entry): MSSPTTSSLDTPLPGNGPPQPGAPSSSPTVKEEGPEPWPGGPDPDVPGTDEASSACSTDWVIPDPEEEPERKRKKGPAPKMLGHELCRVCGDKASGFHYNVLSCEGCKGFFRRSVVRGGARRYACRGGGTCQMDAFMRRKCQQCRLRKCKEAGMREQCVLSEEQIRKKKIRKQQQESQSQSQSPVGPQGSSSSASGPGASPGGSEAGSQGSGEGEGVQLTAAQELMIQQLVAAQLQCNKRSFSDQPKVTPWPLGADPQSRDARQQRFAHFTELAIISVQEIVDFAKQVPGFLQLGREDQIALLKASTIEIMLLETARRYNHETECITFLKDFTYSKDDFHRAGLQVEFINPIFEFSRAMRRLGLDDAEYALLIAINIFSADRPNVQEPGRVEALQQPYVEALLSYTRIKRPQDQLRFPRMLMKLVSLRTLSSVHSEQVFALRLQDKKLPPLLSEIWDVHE

[5] = biological target: Retinoic acid receptor beta (Homo sapiens, UniProt P10826); type: functional, cell-based
Sequence of Retinoic acid receptor beta (P10826 whole entry): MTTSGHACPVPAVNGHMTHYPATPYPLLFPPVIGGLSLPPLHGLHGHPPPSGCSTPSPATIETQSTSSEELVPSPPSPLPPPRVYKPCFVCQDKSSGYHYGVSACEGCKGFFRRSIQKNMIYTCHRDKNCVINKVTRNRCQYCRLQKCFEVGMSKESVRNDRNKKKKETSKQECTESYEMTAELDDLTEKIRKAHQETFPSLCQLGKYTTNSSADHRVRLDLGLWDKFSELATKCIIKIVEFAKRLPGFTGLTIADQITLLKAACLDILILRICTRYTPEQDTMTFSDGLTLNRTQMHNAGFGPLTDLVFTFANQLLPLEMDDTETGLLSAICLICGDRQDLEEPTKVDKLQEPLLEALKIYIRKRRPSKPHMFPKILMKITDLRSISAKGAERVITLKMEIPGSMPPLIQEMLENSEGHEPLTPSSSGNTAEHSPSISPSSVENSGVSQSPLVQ

[6] = biological target: T4, Oxysterols receptor LXR-beta; type: functional; remark: listed apart in the source
[7] = biological target: T5, Retinoic acid receptor gamma (Homo sapiens, UniProt P13631); type: functional, cell-based
T5 sequence (P13631 whole entry): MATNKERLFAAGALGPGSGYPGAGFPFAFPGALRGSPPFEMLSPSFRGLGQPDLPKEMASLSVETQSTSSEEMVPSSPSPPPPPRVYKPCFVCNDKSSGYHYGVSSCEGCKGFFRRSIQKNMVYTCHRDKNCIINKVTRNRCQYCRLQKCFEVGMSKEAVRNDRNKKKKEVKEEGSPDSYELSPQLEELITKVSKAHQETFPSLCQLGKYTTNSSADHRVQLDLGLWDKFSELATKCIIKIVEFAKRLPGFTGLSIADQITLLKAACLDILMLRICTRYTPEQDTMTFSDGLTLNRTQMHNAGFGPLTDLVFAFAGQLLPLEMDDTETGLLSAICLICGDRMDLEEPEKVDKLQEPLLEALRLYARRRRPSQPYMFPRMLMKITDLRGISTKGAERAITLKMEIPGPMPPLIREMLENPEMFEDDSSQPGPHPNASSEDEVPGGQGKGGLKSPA

[8] = biological target: Retinoic acid receptor alpha (Homo sapiens, UniProt P10276); type: functional, cell-based
Sequence of Retinoic acid receptor alpha (P10276 whole entry): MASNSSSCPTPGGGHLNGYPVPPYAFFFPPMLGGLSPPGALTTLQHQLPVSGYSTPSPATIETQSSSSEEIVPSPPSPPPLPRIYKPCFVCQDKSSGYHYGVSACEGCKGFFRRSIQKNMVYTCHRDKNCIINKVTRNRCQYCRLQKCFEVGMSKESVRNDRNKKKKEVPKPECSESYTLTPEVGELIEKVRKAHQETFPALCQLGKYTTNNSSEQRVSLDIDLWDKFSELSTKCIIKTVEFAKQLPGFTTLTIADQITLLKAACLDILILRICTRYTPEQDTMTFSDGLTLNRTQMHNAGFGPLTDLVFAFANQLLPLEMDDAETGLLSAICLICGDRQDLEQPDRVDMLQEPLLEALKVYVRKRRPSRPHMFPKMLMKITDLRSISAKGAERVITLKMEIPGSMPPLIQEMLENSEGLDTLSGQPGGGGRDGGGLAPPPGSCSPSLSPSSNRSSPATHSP

[9] = biological target: T5, Retinoic acid receptor gamma; type: functional, cell-based; remark: listed apart in the source
[10] = biological target: T6, Muscarinic acetylcholine receptor M1 (Homo sapiens, UniProt P11229); type: functional, cell-based
T6 sequence (P11229 whole entry): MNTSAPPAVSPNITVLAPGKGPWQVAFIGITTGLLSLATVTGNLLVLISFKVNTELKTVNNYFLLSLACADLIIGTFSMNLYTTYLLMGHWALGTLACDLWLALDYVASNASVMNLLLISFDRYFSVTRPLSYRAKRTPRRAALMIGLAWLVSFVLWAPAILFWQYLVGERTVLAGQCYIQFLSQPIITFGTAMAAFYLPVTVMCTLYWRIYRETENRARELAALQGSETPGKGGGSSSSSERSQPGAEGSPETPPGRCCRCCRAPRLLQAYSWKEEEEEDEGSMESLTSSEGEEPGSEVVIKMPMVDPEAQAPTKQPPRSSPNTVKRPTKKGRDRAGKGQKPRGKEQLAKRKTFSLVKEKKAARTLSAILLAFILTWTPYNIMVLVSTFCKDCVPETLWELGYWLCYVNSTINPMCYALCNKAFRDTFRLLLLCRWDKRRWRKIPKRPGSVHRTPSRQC

[11] = biological target: T7, Muscarinic acetylcholine receptor M2 (Homo sapiens, UniProt P08172)
T7 sequence (P08172 whole entry): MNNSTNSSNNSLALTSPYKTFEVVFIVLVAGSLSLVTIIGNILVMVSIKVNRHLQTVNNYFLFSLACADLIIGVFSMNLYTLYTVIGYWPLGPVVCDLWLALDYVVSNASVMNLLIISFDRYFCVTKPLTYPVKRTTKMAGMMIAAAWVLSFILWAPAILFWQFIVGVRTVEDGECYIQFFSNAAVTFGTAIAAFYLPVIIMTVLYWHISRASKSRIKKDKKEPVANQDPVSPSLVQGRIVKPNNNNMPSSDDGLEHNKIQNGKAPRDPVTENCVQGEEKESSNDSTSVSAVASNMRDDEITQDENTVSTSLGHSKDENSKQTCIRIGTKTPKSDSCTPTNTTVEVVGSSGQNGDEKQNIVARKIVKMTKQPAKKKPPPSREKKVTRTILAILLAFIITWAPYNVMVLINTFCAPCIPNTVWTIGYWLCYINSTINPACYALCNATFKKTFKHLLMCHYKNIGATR
Further: assay procedure not described here.

`CCOc1nc2cccc(C(=O)O)c2n1Cc1ccc(-c2ccccc2-c2nnn[nH]2)cc1` was tested, and the AC50 [1] was 84.8 µM.

`CC[C@@H](CO)NC(=O)[C@@H]1C=C2c3cccc4c3c(cn4C)C[C@H]2N(C)C1` [METHYSERGIDE] gave an AC50 [2] of 170 nM.

Work on `CN(CCOc1ccc(CC2SC(=O)NC2=O)cc1)c1ccccn1` (stereo unspecified) [ROSIGLITAZONE] yielded an AC50 [3] greater than 30 µM.

`COc1cc(C(=O)NS(=O)(=O)c2ccccc2C)ccc1Cc1cn(C)c2ccc(NC(=O)OC3CCCC3)cc12` [ZAFIRLUKAST] was tested, and the AC50 [4] was greater than 30 µM, the AC50 [5] was 13 µM and the AC50 [6] was greater than 30 µM. It also gave an AC50 [7] greater than 30 µM, an AC50 [8] greater than 30 µM and an AC50 [9] greater than 30 µM.

For `O=C1Cc2cc(CCN3CCN(c4nsc5ccccc45)CC3)c(Cl)cc2N1` [ZIPRASIDONE], the AC50 [10] was greater than 30 µM and the AC50 [11] was 6.3 µM.
